Measurements published in PubChem BioAssay AID248 (DTP/NCI, 2004).
Inconclusive results and toxic doses are left out. No stated cut-off is given here; in the data, active means T/C of 150% or more; inactive means T/C below 125%.

Tested on: L1210 leukemia ip in BDF1 mice, survival T/C
Experiment: NCI In Vivo Anticancer Drug Screen. Data for tumor model L1210 Leukemia (intraperitoneal) in B6D2F1 (BDF1) mice
Conditions: endpoint: mean survival time, higher = longer survival
Procedure, shortened: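 Antitumor effect is assessed in tumor-bearing animals. Survival in the compound arm is compared with a vehicle-dosed control arm and expressed as their quotient.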

[1] = dose: 50.0 mg/kg/injection, schedule: Q01DX009 (ip), vehicle: Klucel (hydroxypropylcellulose) (HPC)
[2] = dose: 100.0 mg/kg/injection, schedule: Q01DX009 (ip), vehicle: Klucel (hydroxypropylcellulose) (HPC)
[3] = dose: 100.0 mg/kg/injection, schedule: Q04DX003 (ip), vehicle: Klucel (hydroxypropylcellulose) (HPC)
[4] = dose: 200.0 mg/kg/injection, schedule: Q04DX003 (ip), vehicle: Klucel (hydroxypropylcellulose) (HPC)
[5] = dose: 100.0 mg/kg/injection, schedule: Q01DX001 (ip), vehicle: saline
[6] = dose: 200.0 mg/kg/injection, schedule: Q01DX001 (ip), vehicle: saline
[7] = dose: 400.0 mg/kg/injection, schedule: Q01DX001 (ip), vehicle: saline
[8] = dose: 100.0 mg/kg/injection, schedule: Q01DX001 (ip), vehicle: carboxymethylcellulose (CMC)
[9] = dose: 100.0 mg/kg/injection, schedule: Q01DX009 (ip), vehicle: saline
[10] = dose: 100.0 mg/kg/injection, schedule: Q04DX003 (ip), vehicle: saline
[11] = dose: 200.0 mg/kg/injection, schedule: Q01DX009 (ip), vehicle: saline
[12] = dose: 400.0 mg/kg/injection, schedule: Q01DX009 (ip), vehicle: saline

Measured: T/C

Clc1ccc2sc3c(c2c1)CCNC3
inactive: dose: 12.5 mg/kg/injection, schedule: Q01DX009 (ip), vehicle: Klucel (hydroxypropylcellulose) (HPC) 94 % of control | dose: 25.0 mg/kg/injection, schedule: Q01DX009 (ip), vehicle: Klucel (hydroxypropylcellulose) (HPC) 97 % of control | dose: 25.0 mg/kg/injection, schedule: Q04DX003 (ip), vehicle: Klucel (hydroxypropylcellulose) (HPC) 97 % of control | [1] 90 % of control | [2] 101 % of control | [3] 92 % of control | dose: 200.0 mg/kg/injection, schedule: Q01DX009 (ip), vehicle: Klucel (hydroxypropylcellulose) (HPC) 95 % of control | [4] 92 % of control

CC(=O)Nc1ccc(Cc2ccc(NC(C)=O)cc2N)c(N)c1
inactive: dose: 50.0 mg/kg/injection, schedule: Q01DX001 (ip), vehicle: saline 96 % of control | [5] 98 % of control | [6] 104 % of control | [7] 92 % of control

O=[N+]([O-])c1ccc(C=Nc2ccccc2S)s1
inactive: [3] 100 % of control | [4] 96 % of control | dose: 400.0 mg/kg/injection, schedule: Q04DX003 (ip), vehicle: Klucel (hydroxypropylcellulose) (HPC) 94 % of control

COC1OC(CBr)C(Br)C(OC(=O)c2ccccc2)C1OC(=O)c1ccccc1 (configuration not stated)
inactive: dose: 75.0 mg/kg/injection, schedule: Q04DX002 (ip), vehicle: Klucel (hydroxypropylcellulose) (HPC) 103 % of control | dose: 150.0 mg/kg/injection, schedule: Q04DX002 (ip), vehicle: Klucel (hydroxypropylcellulose) (HPC) 98 % of control | dose: 300.0 mg/kg/injection, schedule: Q04DX002 (ip), vehicle: Klucel (hydroxypropylcellulose) (HPC) 98 % of control

CCOC(=O)NNC(=O)O
inactive: dose: 50.0 mg/kg/injection, schedule: Q01DX001 (ip), vehicle: carboxymethylcellulose (CMC) 108 % of control | [8] 90 % of control

CCOC(=O)N(CCCCCCNC(c1ccccc1)S(=O)(=O)O)c1ccccc1 (configuration not stated)
inactive: dose: 6.0 mg/kg/injection, schedule: Q01DX009 (ip), vehicle: saline 109 % of control | dose: 12.0 mg/kg/injection, schedule: Q01DX009 (ip), vehicle: saline 103 % of control | dose: 25.0 mg/kg/injection, schedule: Q01DX009 (ip), vehicle: saline 106 % of control | dose: 50.0 mg/kg/injection, schedule: Q01DX009 (ip), vehicle: saline 97 % of control | [8] 98 % of control | [9] 86 % of control

COc1ccc(Cl)cc1NC(=O)Nc1ccc(CCO)cc1
inactive: [9] 100 % of control | [10] 113 % of control | [11] 91 % of control | dose: 200.0 mg/kg/injection, schedule: Q04DX003 (ip), vehicle: saline 103 % of control | [12] 93 % of control | dose: 400.0 mg/kg/injection, schedule: Q04DX003 (ip), vehicle: saline 101 % of control

[C-]#[N+]C(C)(CC)c1ccccc1 (configuration not stated)
inactive: dose: 6.25 mg/kg/injection, schedule: Q01DX009 (ip), vehicle: saline with Tween-80 93 % of control | dose: 6.25 mg/kg/injection, schedule: Q04DX003 (ip), vehicle: acetone 96 % of control | dose: 12.5 mg/kg/injection, schedule: Q01DX001 (ip), vehicle: acetone 91 % of control | dose: 12.5 mg/kg/injection, schedule: Q01DX009 (ip), vehicle: saline with Tween-80 95 % of control | dose: 12.5 mg/kg/injection, schedule: Q04DX003 (ip), vehicle: acetone 108 % of control | dose: 25.0 mg/kg/injection, schedule: Q01DX001 (ip), vehicle: acetone 96 % of control | dose: 25.0 mg/kg/injection, schedule: Q01DX009 (ip), vehicle: saline with Tween-80 95 % of control | dose: 25.0 mg/kg/injection, schedule: Q04DX003 (ip), vehicle: acetone 100 % of control

CC(C)CNCc1cc(Nc2ccnc3cc(Cl)ccc23)ccc1O
inactive: dose: 100.0 mg/kg/injection, schedule: Q04DX002 (ip), vehicle: saline 94 % of control | dose: 200.0 mg/kg/injection, schedule: Q04DX002 (ip), vehicle: saline 98 % of control

CC(=O)Oc1ccc2ncccc2c1Cc1c(OC(C)=O)ccc2ncccc12
inactive: dose: 75.0 mg/kg/injection, schedule: Q04DX003 (ip), vehicle: saline 91 % of control | dose: 150.0 mg/kg/injection, schedule: Q04DX003 (ip), vehicle: saline 95 % of control | dose: 300.0 mg/kg/injection, schedule: Q04DX003 (ip), vehicle: saline 95 % of control

COC1=[C]([Hg][Br])C(OC)OC1OC (configuration not stated)
inactive: dose: 5.0 mg/kg/injection, schedule: Q01DX009 (ip), vehicle: saline with Tween-80 89 % of control | dose: 10.0 mg/kg/injection, schedule: Q01DX009 (ip), vehicle: saline with Tween-80 95 % of control

COc1ccc(NCNc2ccc(OC)cc2)cc1
inactive: [1] 94 % of control | [2] 98 % of control | [3] 103 % of control | [4] 103 % of control

N/C(=N\N=C\c1ccc2c(c1)OCO2)N/N=C\c1ccc2c(c1)OCO2
inactive: dose: 15.0 mg/kg/injection, schedule: Q01DX Z (ip), vehicle: carboxymethylcellulose (CMC) 95 % of control | dose: 30.0 mg/kg/injection, schedule: Q01DX Z (ip), vehicle: carboxymethylcellulose (CMC) 101 % of control | dose: 60.0 mg/kg/injection, schedule: Q01DX Z (ip), vehicle: carboxymethylcellulose (CMC) 97 % of control | dose: 120.0 mg/kg/injection, schedule: Q01DX Z (ip), vehicle: carboxymethylcellulose (CMC) 94 % of control | dose: 120.0 mg/kg/injection, schedule: Q01DX Z (oral), vehicle: carboxymethylcellulose (CMC) 95 % of control | dose: 240.0 mg/kg/injection, schedule: Q01DX Z (oral), vehicle: carboxymethylcellulose (CMC) 103 % of control | dose: 480.0 mg/kg/injection, schedule: Q01DX Z (oral), vehicle: carboxymethylcellulose (CMC) 101 % of control | dose: 960.0 mg/kg/injection, schedule: Q01DX Z (oral), vehicle: carboxymethylcellulose (CMC) 97 % of control

Cc1ncc(C(N)=O)c(C)n1
inactive: [5] 95 % of control | [6] 101 % of control | [7] 101 % of control

OC1CCNc2ccccc21 (configuration not stated)
inactive: [9] 104 % of control | [11] 105 % of control | [12] 112 % of control

Oc1ccc(Cl)cc1Sc1cc(Cl)ccc1O
inactive: dose: 25.0 mg/kg/injection, schedule: Q04DX003 (ip), vehicle: other 103 % of control | dose: 50.0 mg/kg/injection, schedule: Q01DX009 (ip), vehicle: other 95 % of control | dose: 50.0 mg/kg/injection, schedule: Q04DX003 (ip), vehicle: other 97 % of control | dose: 100.0 mg/kg/injection, schedule: Q01DX009 (ip), vehicle: other 111 % of control | dose: 100.0 mg/kg/injection, schedule: Q04DX003 (ip), vehicle: other 92 % of control | [10] 86 % of control | dose: 200.0 mg/kg/injection, schedule: Q01DX009 (ip), vehicle: other 95 % of control
